Test results from patent publication US7537919B2, “Cytochrome P450RAI-2 and related proteins” (Cytochroma Inc., priority 1999, dated 2009).
“And” between values parts separate entries of the source, which are not always exact repeats. Equal values may be shown once.

How the values were obtained:
P450RAI-2 expression = P450RAI-2 expression in RAFT and psoriasis biopsy samples (Northern blot, RT-PCR); assay type: cell-based, human
Protocol: Total RNA aliquots (10 μg) were electrophoresed on a 1.0% formaldehyde-agarose gel and a northern blot performed. The gel was photographed under ultraviolet light and then blotted on Hybond ECL nitrocellulose membrane (Amersham Pharmacia Biotech, UK) and fixed to the membrane by baking at 80° C. for 2 hours under vacuum. […] Three individual cDNA fragments were labeled with α-[^32P]dATP using the Prime-A-Gene Labeling System (Promega, WI). The probes were as follows; P450RAI-1762-1217 bp of SEQ ID NO:13, full length P450RAI-2 SEQ ID NO:4 and a human glyceraldehyde-3-phosphate dehydrogenase (GAPDH) PCR fragment. The blot was hybidized with P450RAI-2, washed two times for 5 minutes in 2×SSPE, 0.1% SDS at room temperature, then washed once at 65° C. for 10 minutes in 1×SSPE, 0.1% SDS and a final wash for 15 minutes at 65° C. in 0.1×SSPE, 0.1% SDS. The blot was exposed at −70° C. for 48 hours to Kodak X-Omat AR film (Eastman Kodak Company, NY). […] The blot was stripped by washing two times for 30 minutes in boiling 0.5% SDS and exposed to film overnight to ensure proper removal of probe. The above protocol was repeated for P450RAI-1 and GAPDH. The P450RAI-1 and GAPDH blots were exposed for 96 and 4 hours respectively.
The final primer concentrations were 45 μM for the P450RAI-1 and P450RAI-2 primers and 11.25 μM for the GAPDH-specific primers. Two separate sets of reactions were performed using the primer sets, P450RAI-1/GAPDH and P450RAI-2/GAPDH. […] The P450RAI-1, P450RAI-2 and GAPDH upstream and downstream amplification primers sets were 5′[…]-3′ (SEQ ID NO: 35) and 5′-[…]-3′ (SEQ ID NO: 36), 5′-[…]-3′ (SEQ ID NO: 37) and 5′-[…]-3′ (SEQ ID NO: 38), 5′-[…]-3′ (SEQ ID NO: 39) and 5′-[…]-3′ (SEQ ID NO: 40) respectively. […] Both the Psoriasis samples show PCR products corresponding to P450RAI-2.

P450RAI-1 [1] = biological target: T1, P450RAI-1 (Homo sapiens, UniProt O43174); test: Competitive inhibition of all-trans-RA metabolism in COS-1 cells transfected with pcDNA3.1-P450RAI-1; assay type: cell-based; set-up: expressed in transfected cells; host or cells: COS-1 (African green monkey kidney), transient transfection; conditions: for effectiveness as competitor of P450RAI-1 mediated all-trans-RA metabolism: compared with all-trans-RA; for IC50: 2 nM [3H]all-trans-RA, 3 hours, aqueous soluble radioactivity, read-out: Interpolated ID50, P450RAI-1
T1 sequence (O43174 1-497): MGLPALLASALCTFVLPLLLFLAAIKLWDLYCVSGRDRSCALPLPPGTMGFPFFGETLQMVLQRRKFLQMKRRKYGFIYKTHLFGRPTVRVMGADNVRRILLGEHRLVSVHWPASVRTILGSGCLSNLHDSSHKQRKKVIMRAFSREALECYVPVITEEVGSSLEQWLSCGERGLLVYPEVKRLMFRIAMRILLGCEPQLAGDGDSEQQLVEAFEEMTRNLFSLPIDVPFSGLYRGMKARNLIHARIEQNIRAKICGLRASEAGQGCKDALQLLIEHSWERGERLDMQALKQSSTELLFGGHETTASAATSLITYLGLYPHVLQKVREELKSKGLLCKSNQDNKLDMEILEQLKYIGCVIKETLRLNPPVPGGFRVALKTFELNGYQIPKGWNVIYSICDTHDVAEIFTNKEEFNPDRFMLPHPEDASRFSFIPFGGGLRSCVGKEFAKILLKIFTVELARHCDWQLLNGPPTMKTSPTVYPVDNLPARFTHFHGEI
Protocol: (§1) Panels on the right show cells expressing P450RAI-2 with panels on the left showing cells expressing P450RAI-1.
(§2) Exponentially growing cells were plated in triplicate into 6-well plates and transfected with lug of pcDNA3.1-P450RAI-1 or pcDNA3.1-P450RAI-2 using Fugene 6 transfection reagent with 3 ul per sample as described by the manufacturer (Roche Molecular Biochemicals, IN). Cells were maintained in media supplemented with 10% FBS during transfection.
COS-1 cells were transfected with either pcDNA3.1-P450RAI-1 or pcDNA3.1-P450RAI-2 in 6-well tissue culture plates as described above. 48 hours post-transfection cells were harvested, pooled, washed with DMEM medium and replated into duplicate 48-well plates with 5×10^5 cells per well.

P450RAI-2 [2] = biological target: T2, P450RAI-2 (Homo sapiens, UniProt Q9NR63); test: Competitive inhibition of all-trans-RA metabolism in COS-1 cells transfected with pcDNA3.1-P450RAI-2; assay type: cell-based; set-up: The full-length human P450RAI-2 cDNA was cloned into the eukaryotic expression vector pcDNA 3.1; expressed in transfected cells; host or cells: COS-1 (African green monkey kidney), transient transfection; conditions: for effectiveness as competitor of P450RAI-2 mediated all-trans-RA metabolism: compared with all-trans-RA, COS-1 cells
T2 sequence (Q9NR63 1-512): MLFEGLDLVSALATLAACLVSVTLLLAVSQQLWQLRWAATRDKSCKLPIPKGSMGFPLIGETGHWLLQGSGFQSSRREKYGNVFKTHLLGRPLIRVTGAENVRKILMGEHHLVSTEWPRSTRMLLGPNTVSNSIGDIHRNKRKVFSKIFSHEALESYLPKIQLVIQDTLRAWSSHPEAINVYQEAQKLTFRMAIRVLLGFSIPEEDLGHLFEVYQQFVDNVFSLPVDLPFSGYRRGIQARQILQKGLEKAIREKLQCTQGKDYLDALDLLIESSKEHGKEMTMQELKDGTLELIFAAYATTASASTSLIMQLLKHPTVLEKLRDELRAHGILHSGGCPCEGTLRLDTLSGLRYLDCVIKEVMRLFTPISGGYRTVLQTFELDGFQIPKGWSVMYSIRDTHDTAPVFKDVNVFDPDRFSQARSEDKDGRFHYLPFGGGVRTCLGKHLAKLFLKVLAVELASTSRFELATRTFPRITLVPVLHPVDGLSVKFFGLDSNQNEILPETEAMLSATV
Protocol: as §1, §2
COS-1 cells were transfected with either pcDNA3.1-P450RAI-1 or pcDNA3.1-P450RAI-2 in 6-well tissue culture plates as described above.

P450RAI-2 transcripts = test: Induction of P450RAI-2 mRNA in cultured cell lines (Northern blot, RT-PCR); conditions: for induction of P450RAI-2 expression, MCF-7 cells: 10^-6 M retinoid
[3] = Conversion of [3H]all-trans-RA in controls (media alone, pcDNA3.1 transfected COS-1 cells)
P450RAI-1 [4] = biological target: T1, P450RAI-1; test: Metabolism of [3H]all-trans-RA to aqueous-soluble products in COS-1 cells transfected with pcDNA3.1-P450RAI-1; conditions: 100 mM (so in the source) radiolabelled all-trans-retinoic acid
P450RAI-2 [5] = biological target: T2, P450RAI-2; test: Metabolism of [3H]all-trans-RA to aqueous-soluble products in COS-1 cells transfected with pcDNA3.1-P450RAI-2; set-up: dose or concentration left out as unconfirmed; conditions: radiolabelled all-trans-retinoic acid

## CCOC(=O)c1ccc(C#Cc2ccc3c(c2)C(C)(C)CCS3)nc1 [Tazarotene]
P450RAI-2 expression; Northern blot
  P450RAI-2 expression, Day14 Psoriasis Biopsy sample: expressed
  P450RAI-2 expression, RAFT sample: induced
P450RAI-2 expression; RT-PCR
  P450RAI-2 expression, RAFT sample: shows expression

## CC1=C(/C=C/C(C)=C/C=C/C(C)=C\C(=O)O)C(C)(C)CCC1 [13-cis-RA, 13-cis retinoic acid]
P450RAI-1 [1]
  effectiveness as competitor of P450RAI-1 mediated all-trans-RA metabolism: less effective
P450RAI-2 [2]
  effectiveness as competitor of P450RAI-2 mediated all-trans-RA metabolism: less effective
P450RAI-2 transcripts; Northern blot, 12 hours
  induction of P450RAI-2 expression, MCF-7 cells: induced

## CC1=C(/C=C/C(C)=C/C=C/C(C)=C/C=O)C(C)(C)CCC1 [retinal]
P450RAI-1 [1]
  effectiveness as competitor of P450RAI-1 mediated all-trans-RA metabolism: less effective
P450RAI-1 [1]; listed as retinaldehyde
  effectiveness as competitor of P450RAI-1 mediated all-trans-RA metabolism: very poor competitors
P450RAI-2 [2]
  effectiveness as competitor of P450RAI-2 mediated all-trans-RA metabolism: less effective
P450RAI-2 [2]; listed as retinaldehyde
  effectiveness as competitor of P450RAI-2 mediated all-trans-RA metabolism: very poor competitors

## CC1=C(/C=C/C(C)=C/C=C/C(C)=C/CO)C(C)(C)CCC1 [Retinol, retinol]
P450RAI-1 [1]
  IC50: > 100 µM
  effectiveness as competitor of P450RAI-1 mediated all-trans-RA metabolism: less effective
P450RAI-1 [1]; listed as retinol
  effectiveness as competitor of P450RAI-1 mediated all-trans-RA metabolism: very poor competitors
P450RAI-2 [2]
  effectiveness as competitor of P450RAI-2 mediated all-trans-RA metabolism: less effective
P450RAI-2 [2]; listed as retinol
  effectiveness as competitor of P450RAI-2 mediated all-trans-RA metabolism: very poor competitors
P450RAI-2 [2]; read-out: Interpolated ID50, P450RAI-2
  IC50: > 100 µM

## CC1=C(/C=C/C(C)=C/C=C/C(C)=C/C(=O)O)C(C)(C)CCC1 [All-trans-RA, all-trans retinoic acid]
[3]; COS-1 cells with empty vector pcDNA3.1, 3 hours
  conversion of substrate to aqueous radioactivity, pcDNA3.1 transfected cells: 2.7±0.2%
[3]; media alone control, 3 hours
  conversion of substrate to aqueous radioactivity, media alone: 1.6±0.1%
P450RAI-1 [4]
  all-trans-RA substrate converted to aqueous-soluble products, P450RAI-1 transfected cells: 26±1.5%
P450RAI-1 [1]
  IC50: ~2.5 µM and 2.5 µM
P450RAI-2 [5]
  all-trans-RA substrate converted to aqueous-soluble products, P450RAI-2 transfected cells: 34±0.2%
P450RAI-2 transcripts; HPK1a-ras cells, RT-PCR, post-addition of inducer
  time to induction of P450RAI-2 transcripts: ≤ 2 h
P450RAI-2 transcripts; Northern blot, 1 μM, 12 hours
  induction of P450RAI-2 transcripts, HPK1a-ras, HeLa and MCF-7: show induction
P450RAI-2 transcripts; Northern blot, 12 hours
  induction of P450RAI-2 expression, MCF-7 cells: induced
P450RAI-2 transcripts; Northern blot, 10^-6 M, 12 hours
  induction of P450RAI-2 expression, HPK1A-RAS keratinocytes: inducible
P450RAI-2 transcripts; RT-PCR, 1 μM
  inducible expression of P450RAI-2, MCF-7, HeLa, HPK1a-ras and WT-E: evidence for inducible expression
P450RAI-2 transcripts; RT-PCR, vehicle or all-trans-RA treated
  P450RAI-2 transcripts in NB4, V79 and SK-Luci-6 cells: little or no perceptible transcripts

## CC1=C(/C=C/C(C)=C\C=C\C(C)=C\C(=O)O)C(C)(C)CCC1 [9-cis-RA, 9-cis retinoic acid]
P450RAI-1 [1]
  effectiveness as competitor of P450RAI-1 mediated all-trans-RA metabolism: less effective
P450RAI-2 [2]
  effectiveness as competitor of P450RAI-2 mediated all-trans-RA metabolism: less effective
P450RAI-2 transcripts; Northern blot, 12 hours
  induction of P450RAI-2 expression, MCF-7 cells: not clear
